Assay results taken from ChEMBL document CHEMBL5241128, “Synthesis of 1-O-acyl- and 1-oxo-kamebanin analogues and their cytotoxic activity” (Bioorg Med Chem Lett, 2023).

Legend:
HCT-116 = assay: Cytotoxicity against human HCT-116 cells assessed as inhibition of cell growth; format: functional, cell-based
HL-60 = assay: Cytotoxicity against human HL-60 cells assessed as inhibition of cell growth; format: functional, cell-based

Structure (SMILES)	IC50 (HCT-116) [µM]	IC50 (HL-60) [µM]
C=C1C(=O)[C@@]23[C@@H]4OC(C)(C)O[C@@H]2C[C@@H]2C(C)(C)CC[C@H](OC(=O)CC)[C@@]2(C)[C@@H]3CC[C@@H]14	6.9	5.7
C=C1C(=O)[C@@]23[C@H](O)C[C@@H]4C(C)(C)CCC(=O)[C@@]4(C)[C@@H]2CC[C@@H]1[C@H]3O	11	2.2
C=C1C(=O)[C@@]23[C@@H]4OC(C)(C)O[C@@H]2C[C@@H]2C(C)(C)CC[C@H](OC(=O)CCCCC)[C@@]2(C)[C@@H]3CC[C@@H]14	6.8	6.9
C=C1C(=O)[C@@]23[C@H](O)C[C@@H]4C(C)(C)CC[C@H](OC(=O)CCCC)[C@@]4(C)[C@@H]2CC[C@@H]1[C@H]3O	4.2	2
C=C1C(=O)[C@@]23[C@@H]4OC(C)(C)O[C@@H]2C[C@@H]2C(C)(C)CC[C@H](OC(C)=O)[C@@]2(C)[C@@H]3CC[C@@H]14	43	57
C=C1C(=O)[C@@]23[C@@H]4OC(C)(C)O[C@@H]2C[C@@H]2C(C)(C)CC[C@H](O)[C@@]2(C)[C@@H]3CC[C@@H]14	7.6	7.3
C=C1C(=O)[C@@]23[C@H](O)C[C@@H]4C(C)(C)CC[C@H](OC(=O)C(C)(C)C)[C@@]4(C)[C@@H]2CC[C@@H]1[C@H]3O	4.3	2.8
C=C1C(=O)[C@@]23[C@@H]4OC(C)(C)O[C@@H]2C[C@@H]2C(C)(C)CC[C@H](OC(=O)C(C)(C)C)[C@@]2(C)[C@@H]3CC[C@@H]14	35	14
C=C1C(=O)[C@@]23[C@@H]4OC(C)(C)O[C@@H]2C[C@@H]2C(C)(C)CC[C@H](OC(=O)CCCC)[C@@]2(C)[C@@H]3CC[C@@H]14	10	7.7
C=C1C(=O)[C@@]23[C@@H]4OC(C)(C)O[C@@H]2C[C@@H]2C(C)(C)CCC(=O)[C@@]2(C)[C@@H]3CC[C@@H]14	77	36
C=C1C(=O)[C@@]23[C@@H]4OC(C)(C)O[C@@H]2C[C@@H]2C(C)(C)CC[C@H](OC(=O)CCC)[C@@]2(C)[C@@H]3CC[C@@H]14	3.9	7.2
C=C1C(=O)[C@@]23[C@H](O)C[C@@H]4C(C)(C)CC[C@H](OC(=O)CCC)[C@@]4(C)[C@@H]2CC[C@@H]1[C@H]3O	4.2	6.1
C=C1C(=O)[C@@]23[C@H](O)C[C@@H]4C(C)(C)CC[C@H](OC(C)=O)[C@@]4(C)[C@@H]2CC[C@@H]1[C@H]3O	13	5.7
C=C1C(=O)[C@@]23[C@H](O)C[C@@H]4C(C)(C)CC[C@H](OC(=O)CC)[C@@]4(C)[C@@H]2CC[C@@H]1[C@H]3O	9.7	5.9
C=C1C(=O)[C@@]23[C@H](O)C[C@@H]4C(C)(C)CC[C@H](OC(=O)CCCCC)[C@@]4(C)[C@@H]2CC[C@@H]1[C@H]3O	4	5.6
COc1cc([C@@H]2c3cc4c(cc3[C@@H](O[C@@H]3O[C@@H]5CO[C@@H](C)O[C@H]5[C@H](O)[C@H]3O)[C@H]3COC(=O)[C@H]23)OCO4)cc(OC)c1O [ETOPOSIDE]	23	12
C=C1C(=O)[C@@]23[C@H](O)C[C@@H]4C(C)(C)CC[C@H](O)[C@@]4(C)[C@@H]2CC[C@@H]1[C@H]3O [KAMEBANIN]	12	3.3
